Values quoted from earlier work as cited in patent EP4378455A1, “A PHARMACEUTICAL FORMULATION COMPRISING EMPAGLIFLOZIN” (SANOVEL ILAC SANAYI VE TICARET A.S., priority 2022, dated 2024).

OC[C@H]1O[C@@H](c2ccc(Cl)c(Cc3ccc(O[C@H]4CCOC4)cc3)c2)[C@H](O)[C@@H](O)[C@@H]1O [Empagliflozin, (1S)-1,5-anhydro-1-(4-chloro-3-{4-[(3S)-tetrahydrofuran-3-yloxy]benzyl}phenyl)-D-glucitol]
solubility in acetonitrile (acetonitrile): slightly soluble
solubility in ethanol (ethanol): slightly soluble
solubility in methanol (methanol): sparingly soluble
solubility in toluene (toluene): practically insoluble
solubility in water (water (pH 1-7.4)): very slightly soluble
